Assay results: patent US7981438B2, “Use of α-mangostin as a mosquito larvicide” (Wisconsin Alumni Research Foundation, priority 2007, dated 2011)
Structures can show the parent of a compound that is named as a salt.

Columns and labels:
mosquito larvae = assay: toxicity assessment (larval mortality, Probit LD50) in mosquito larvae; format: in vivo; conditions: for LD50 in 4th instar (ppm) / LD50 (uM) in 4th instar: 4th instar larvae
Protocol: Compound was tested at concentrations within the range of 0.65-25.00 μM. Each assay included 60 larvae (1st instar or 4th instar) in 60 ml ddH2O containing either compound or control agent, mortality was recorded until 90% adult emerge rate. The percentage of mortality was transformed into Probit value and plotted against concentration to determine the LD50 value. Each assay was repeated at least three times with different batches of larvae. The mean and standard deviation values are listed above. ND=not determined due to very low mortality.
Compounds were tested at concentrations within the range of 0.65-25.00 μM. Each assay included 60 larvae (1st instar or 4th instar) in 60 ml ddH2O containing either compound or control agent. Mortality was recorded until 90% adult emerge rate. The percentage of mortality was transformed into Probit value and plotted against concentrations to determine the LD50 value. Each assay was repeated at least three times with different batches of larvae.

[1] = tested on: mosquito 4th instar larvae; assay: neutral lipid levels in the midgut of 4th instar larvae (Red Oil O staining); format: in vivo
Protocol: The newly molted 4th instar larvae were treated with DMSO (the negative control), 25 μM SCPI-1 (the positive control), and 10 μM α-mangostin. The midgut tissue was dissected out at the indicated point in time after treatment initiation. The dissected treated midgut tissue was stained with Red Oil O for neutral lipids in situ.

recombinant AeSCP-2 = molecular target: T1, recombinant AeSCP-2 (Aedes aegypti, UniProt Q86PR3); assay: in vitro competition binding assay, NBD-cholesterol binding to AeSCP-2; set-up: species or system mosquito; conditions: at 0.1 mM concentration
T1 sequence (Q86PR3 1-110): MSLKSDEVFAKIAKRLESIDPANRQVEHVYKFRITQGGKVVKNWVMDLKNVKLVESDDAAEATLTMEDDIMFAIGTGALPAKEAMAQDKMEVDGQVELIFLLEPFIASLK
Protocol: At 0.1 mM concentration, α-mangostin decreased NBD-cholesterol binding to AeSCP-2 by 23-29%. […] Specifically, FIG. 1 illustrates the inhibitory effect of α-mangostin on NBD-cholesterol binding to recombinant AeSCP-2. RFU=relative NBD-cholesterol fluorescent unit normalized with NBD-cholesterol background readings. The assays that were used included 5 μM NBD-cholesterol+5 uM AeSCP-2+increasing concentrations of α-mangostin in […] potassium phosphate buffer (pH 7.4).

complement C3 = conditions: compared with phytoestrogens; FIG. 5, Hopert et al. 1998; cited from earlier work
[2] = 1st instar larvae, same LD50 expressed in ppm
[3] = 1st instar larvae, tested 0.65-25.00 μM, mean ± SD
[4] = tested 0.65-25.00 μM, mean ± SD

| Compound | LD50 (uM) in 1st instar (mosquito larvae; mosquito, in vivo) [µM] | LD50 in 1st instar (ppm) (mosquito larvae; mosquito, in vivo) | LD50 in 1st instar (ppm) (mosquito larvae; [2]) | LD50 (uM) in 1st instar (mosquito larvae; [3]) [µM] | fraction of midgut neutral lipids depleted ([1]; 25 μM SCPI-1, 24 hour-old 4th instar larvae) | LD50 in 4th instar (ppm) (mosquito larvae; same LD50 expressed in ppm) | LD50 (uM) in 4th instar (mosquito larvae; [4]) [µM] | neutral lipids in the midgut ([1]; 10 μM α-mangostin, after 24 hours treatment, 4th instar larvae) | decrease of NBD-cholesterol binding to AeSCP-2 (recombinant AeSCP-2) | reproductive side effects in mammals, measured by formation of complement C3 (complement C3) |
| --- | --- | --- | --- | --- | --- | --- | --- | --- | --- | --- |
| COc1ccc(-c2cc(=O)c3c(O)cc(O)c(-c4cc(-c5cc(=O)c6c(O)cc(O)cc6o5)ccc4OC)c3o2)cc1 [isoginkgetin] | 11.29 ± 3.00 | 6.60 |  |  |  |  |  |  |  |  |
| COc1c2c(c(CC=C(C)C)c3oc(=O)c(-c4ccc(O)cc4)c(O)c13)OC(C)(C)C=C2 [lonchocarpic acid] |  |  | 5.21 | 11.99 ± 1.93 |  |  |  |  |  |  |
| obtusauione |  |  | 1.62 | 6.36 ± 1.70 |  |  |  |  |  |  |
| CC(=O)Nc1ccc(Nc2nc(-c3ccc(Cl)c(Cl)c3)cs2)cc1 [SCPI-1, N-(4-{[4-(3,4-dichlorophenyl)-1,3-thiazol-2-yl]amino}phenyl)acetamide hydrobromide, reference compound] |  |  | 1.93 | 4.21 ± 0.38 | about ½ | (or, 11.04 ppm) | 24.04 ± 4.16 |  |  |  |
| COc1c(O)cc2oc3cc(O)c(CC=C(C)C)c(O)c3c(=O)c2c1CC=C(C)C [α-mangostin, 3,6,8-Trihydroxy-2-methoxy-1,7-bis(3-methylbut-2-enyl)xanthen-9-one] |  |  | 1.12 | 2.73 ± 2.46 |  | (or, 4.18 ppm) | 10.18 ± 1.49 | scant amounts of neutral lipids | 23-29% | does not induce reproductive side effects |
